Source: patent US10704122B2, “Simple chemical method for the separation of rare earth metals” (THE TRUSTEES OF THE UNIVERSITY OF PENNSYLVANIA, priority 2014, dated 2020)

Columns and labels:
[1] = Air stability observation; format: physicochemical; settings: solid and solution states
[2] = Solubility in benzene quantified by 1H NMR of saturated C6D6 solutions; format: physicochemical; settings: 1H NMR against ferrocene internal standard
Protocol: The absence of mixed-metal dimer formation prompted a search for conditions where the dimerization of Nd(TriNOx)THF could be exploited for solubility differences between the Nd and Dy species. […] These solubilities were quantified by ^1H NMR spectroscopy, where saturated C6D6 solutions of the complexes were prepared and measured against a ferrocene internal standard.

solubility in benzene [2] [mM] | Compound | air stability [1]
– | CC(C)(C)N(O)c1ccccc1CN(Cc1ccccc1N(O)C(C)(C)C)Cc1ccccc1N(O)C(C)(C)C [H3TriNOx, tris(2-tert-butylhydroxylaminato)benzylamine] | air stable in both the solid and solution states
1.2 | Dy[(2-(^tBuNOH)CH2—C6H4)3N]THF [Dy(TriNOx)THF] | –
60 | Nd[(2-(^tBuNOH)CH2—C6H4)3N]THF [Nd(TriNOx)THF] | –
